Results published in paper PMC10580381 (ACS Pharmacology & Translational Science, 2023).
Entries after “also recorded” stand apart in the source; their conditions may differ.

Key:
E-cadherin = assay: Western blot of E-cadherin in H1975 cells; format: cell-based, human; details: concentration-dependent
α-tubulin acetylation = assay: Western blot of α-tubulin acetylation in H1975 cells; format: cell-based, human; details: flunarizine up to 10 μM, 24 h
Protocol: After the cancer cells were treated with the designated drug candidates, they were harvested in lysis buffer (0.05 M HEPES, 0.15 M NaCl, 2 mM EDTA, 10% v/v glycerol, and 1% v/v Triton X-100, pH 7.4) supplemented with protease and phosphatase inhibitors. Sodium dodecyl sulfate poly(acrylamide) gel electrophoresis (SDS-PAGE) was used to separate the different proteins in the whole cell lysates, which were then transferred to a poly(vinylidene difluoride) membrane for immunoblot analysis using different specific antibodies (acetylated histone H3, acetylated α-tubulin, histone H3, or GAPDH; Cell Signaling Technology). The bands corresponding to specific proteins of interest were visualized by using the WesternBright ECL HRP substrate (Advansta, San Jose, California). A chemiluminescent Western blot signal was detected and analyzed using a ChemiDoc MP system (Bio-Rad Laboratories, Hercules, California).

H1975 cells [1] = assay: Wound healing assay; format: cell-based, human; details: up to 48 h
Source text: After the cells had grown to about 80% confluence, a physical gap was created on the cell monolayer by scratching with a pipet tip. […] The scratch closure rate was estimated by the change in the wound width over time. It was presented as the relative gap width (%) by dividing the average distance between the two margins of the scratch at the indicated time by the initial distance at the start of the wound healing assay.

recombinant human HDAC1 = recombinant human HDAC1 (Homo sapiens, UniProt Q13547); assay: biochemical
recombinant human HDAC8 = molecular target: T1, recombinant human HDAC8 (Homo sapiens, UniProt Q9BY41); assay: biochemical
T1 sequence (Q9BY41 1-377): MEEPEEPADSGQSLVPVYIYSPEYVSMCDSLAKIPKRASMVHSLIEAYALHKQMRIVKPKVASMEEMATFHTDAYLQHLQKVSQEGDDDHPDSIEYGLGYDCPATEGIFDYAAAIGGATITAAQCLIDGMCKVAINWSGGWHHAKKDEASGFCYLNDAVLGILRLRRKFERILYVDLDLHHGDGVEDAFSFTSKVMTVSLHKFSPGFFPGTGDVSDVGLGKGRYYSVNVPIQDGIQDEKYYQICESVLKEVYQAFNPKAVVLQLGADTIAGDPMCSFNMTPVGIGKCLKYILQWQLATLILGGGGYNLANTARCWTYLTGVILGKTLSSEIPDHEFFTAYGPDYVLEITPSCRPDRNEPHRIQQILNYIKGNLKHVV

H1975 cells [2] = assay: Transwell invasion assay; format: cell-based, human; details: flunarizine 5 or 10 μM, 48 h

recombinant human HDAC1, sequence (Q13547 whole entry): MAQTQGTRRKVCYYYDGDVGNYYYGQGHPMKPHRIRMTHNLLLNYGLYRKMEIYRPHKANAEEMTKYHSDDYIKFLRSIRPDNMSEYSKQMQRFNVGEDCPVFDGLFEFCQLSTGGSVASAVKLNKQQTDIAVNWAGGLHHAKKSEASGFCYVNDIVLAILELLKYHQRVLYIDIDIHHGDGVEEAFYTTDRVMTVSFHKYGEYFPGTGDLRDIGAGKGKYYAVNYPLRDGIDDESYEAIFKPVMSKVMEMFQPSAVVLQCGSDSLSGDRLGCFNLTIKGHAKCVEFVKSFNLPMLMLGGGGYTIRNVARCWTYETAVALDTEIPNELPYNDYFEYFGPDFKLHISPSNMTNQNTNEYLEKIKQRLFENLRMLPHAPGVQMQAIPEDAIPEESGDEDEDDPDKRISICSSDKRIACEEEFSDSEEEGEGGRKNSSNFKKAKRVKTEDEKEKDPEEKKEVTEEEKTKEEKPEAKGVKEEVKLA

Fc1ccc(C(c2ccc(F)cc2)N2CCN(C/C=C/c3ccccc3)CC2)cc1 [flunarizine]
E-cadherin expression (E-cadherin): upregulate | effect on acetylation of α-tubulin (α-tubulin acetylation): did not affect acetylation of α-tubulin; also recorded: did not affect the acetylation | cancer cell migration (H1975 cells [1]): inhibited the cell migration ability | IC50 (recombinant human HDAC1): 0.285 ± 0.015 µM | IC50 (recombinant human HDAC8): 5.5 ± 0.45 µM | cancer cell invasion (H1975 cells [2]): inhibition
